# Biological target: PDE10A (Homo sapiens (Human), UniProt Q9Y233)
# Experiment: PDE10A inhibition assay
# Assay type: biochemical
# Method: Active PDE10A enzyme is prepared in a number of ways for use in PDE assays (Loughney, K. et al. Gene 1999, 234, 109-117; Fujishige, K. et al. Eur J. Biochem. 1999, 266, 1118-1127 and Soderling, S. et al. Proc. Natl. Acad. Sci. 1999, 96, 7071-7076). PDE10A can be expressed as full-length proteins or as truncated proteins, as long as they express the catalytic domain. PDE10A can be prepared in different cell types, for example insect cells or E. coli. An example of a method to obtain catalytically active PDE10A is as follows: The catalytic domain of human PDE10A (amino acids 440-779 from the sequence with accession number NP 006652) is amplified from total human brain total RNA by standard RT-PCR and is cloned into the BamH1 and Xho1 sites of the pET28a vector (Novagen). Expression in coli is performed according to standard protocols. Briefly, the expression plasmids are transformed into the BL21(DE3) E. coli strain, and 50 mL cultures inoculated with the cells allowed to grow to an OD600 of 0.4-0.6 before protein expression is induced with 0.5 mM IPTG. Following induction, the cells are incubated overnight at room temperature, after which the cells are collected by centrifugation. Cells expressing PDE10A are resuspended in 12 mL (50 mM TRIS-HCl-pH8.0, 1 mM MgCl2 and protease inhibitors). The cells are lysed by sonication, and after all cells are lysed, TritonX100 is added according to Novagen protocols.
# A PDE10A assay may for example, be performed as follows: The assay is performed in 60 uL samples containing a fixed amount of the relevant PDE enzyme (sufficient to convert 20-25% of the cyclic nucleotide substrate); a buffer (50 mM HEPES7.6; 10 mM MgCl2; 0.02% Tween20), 0.1 mg/ml BSA, 225 pCi of ^3H-labelled cyclic nucleotide substrate, tritium labeled cAMP to a final concentration of 5 nM and varying amounts of inhibitors. Reactions are initiated by addition of the cyclic nucleotide substrate, and reactions are allowed to proceed for one hr at room temperature before being terminated through mixing with 15 uL 8 mg/mL yttrium silicate SPA beads (Amersham). The beads are allowed to settle for one hr in the dark before the plates are counted in a Wallac 1450 Microbeta counter. The measured signal can be converted to activity relative to an uninhibited control (100%) and IC50 values can be calculated using the Xlfit extension to EXCEL.
# Chain of PDE10A (Q9Y233 716-1055): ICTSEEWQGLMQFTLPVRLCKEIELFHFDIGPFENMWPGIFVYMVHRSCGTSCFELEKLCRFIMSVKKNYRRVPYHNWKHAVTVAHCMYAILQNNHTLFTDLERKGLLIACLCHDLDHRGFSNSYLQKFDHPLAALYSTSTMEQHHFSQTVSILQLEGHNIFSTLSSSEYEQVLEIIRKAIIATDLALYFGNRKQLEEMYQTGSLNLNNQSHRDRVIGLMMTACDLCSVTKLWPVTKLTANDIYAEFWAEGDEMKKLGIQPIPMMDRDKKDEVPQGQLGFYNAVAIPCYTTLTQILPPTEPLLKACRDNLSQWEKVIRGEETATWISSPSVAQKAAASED
row,SMILES,IC50
1,"COCCn1cc(-c2cccs2)nc1CCc1cn2c(C)cc(C)nc2n1 [2-{2-[1-(2-Methoxy-ethyl)-4-thiophen-2-yl-1H-imidazol-2-yl]-ethyl}-5,7-dimethyl-imidazo[1,2-a]pyrimidine]",130 nM
2,"Cc1cccc2nc(CCc3nc(-c4cccs4)cn3C[C@@H](O)CN(C)CCC#N)nn12 [3-[((S)-2-Hydroxy-3-{2-[2-(5-methyl-[1,2,4]triazolo[1,5-a]pyridin-2-yl)-ethyl]-4-thiophen-2-yl-imidazol-1-yl}-propyl)-methyl-amino]-propionitrile]",10000 nM
3,"Cc1cccc2nc(CCc3nc(-c4cccs4)cn3C[C@@H](O)CN3CCCC3)nn12 [(S)-1-{2-[2-(5-Methyl-[1,2,4]triazolo[1,5-a]pyridin-2-yl)-ethyl]-4-thiophen-2-yl-imidazol-1-yl}-3-pyrrolidin-1-yl-propan-2-ol]",58 nM
4,"COc1cccn2nc(/C=C/c3nc(-c4ccoc4)cn3C)nc12 [2-[(E)-2-(4-Furan-3-yl-1-methyl-1H-imidazol-2-yl)-vinyl]-8-methoxy-[1,2,4]triazolo[1,5-a]pyridine]",47 nM
5,"Cc1cccc2nc(CCc3nc(-c4cccs4)cn3C[C@@H](O)CNC(C)C)nn12 [(S)-1-Isopropylamino-3-{2-[2-(5-methyl-[1,2,4]triazolo[1,5-a]pyridin-2-yl)-ethyl]-4-thiophen-2-yl-imidazol-1-yl}-propan-2-ol]",46 nM
6,"COc1cccn2nc(CCc3nc(-c4cscc4C)cn3C)nc12 [8-Methoxy-2-{2-[1-methyl-4-(4-methyl-thiophen-3-yl)-1H-imidazol-2-yl]-ethyl}-[1,2,4]triazolo[1,5-a]pyridine]",37 nM
7,"Cc1cccc2nc(CCc3nc(-c4cccnc4)cn3C)nn12 [5-Methyl-2-[2-(1-methyl-4-pyridin-3-yl-1H-imidazol-2-yl)-ethyl]-[1,2,4]triazolo[1,5-a]pyridine]",71 nM
8,"COc1cccn2nc(CCc3nc(-c4ccc(C)o4)c[nH]3)nc12 [8-Methoxy-2-{2-[4-(5-methyl-furan-2-yl)-1H-imidazol-2-yl]-ethyl}-[1,2,4]triazolo[1,5-a]pyridine]",120 nM
9,"COc1cccn2nc(CCc3nc(-c4cccnc4)c[nH]3)nc12 [8-Methoxy-2-[2-(4-pyridin-3-yl-1H-imidazol-2-yl)-ethyl]-[1,2,4]triazolo[1,5-a]pyridine]",270 nM
10,"Cc1cc(C)n2cc(CCc3nc(-c4ccsc4)cn3C)nc2n1 [5,7-Dimethyl-2-[2-(1-methyl-4-thiophen-3-yl-1H-imidazol-2-yl)-ethyl]-imidazo[1,2-a]pyrimidine]",33 nM
11,"COc1cccn2nc(CCc3nc(-c4cccs4)c[nH]3)nc12 [8-Methoxy-2-[2-(4-thiophen-2-yl-1H-imidazol-2-yl)-ethyl]-[1,2,4]triazolo[1,5-a]pyridine]",28 nM
12,"Cc1cc(C)n2cc(/C=C/c3nc(-c4cscn4)cn3C)nc2n1 [5,7-Dimethyl-2-[(E)-2-(1-methyl-4-thiazol-4-yl-1H-imidazol-2-yl)-vinyl]-imidazo[1,2-a]pyrimidine]",180 nM
13,"Cc1cc(C)n2cc(CCc3nc(-c4cccs4)cn3C)nc2n1 [5,7-Dimethyl-2-[2-(1-methyl-4-thiophen-2-yl-1H-imidazol-2-yl)-ethyl]-imidazo[1,2-a]pyrimidine]",45 nM
14,"Cc1cccc2nc(CCc3nc(-c4cccs4)cn3C[C@@H](O)CN(C)C(C)C)nn12 [(S)-1-(Isopropyl-methyl-amino)-3-{2-[2-(5-methyl-[1,2,4]triazolo[1,5-a]pyridin-2-yl)-ethyl]-4-thiophen-2-yl-imidazol-1-yl}-propan-2-ol]",97 nM
15,"COc1cccn2nc(CCc3nc(-c4cncs4)c[nH]3)nc12 [8-Methoxy-2-[2-(4-thiazol-5-yl-1H-imidazol-2-yl)-ethyl]-[1,2,4]triazolo[1,5-a]pyridine]",62 nM
16,"COc1ccc(C)n2nc(CCc3nc(-c4cncs4)cn3C)nc12 [8-Methoxy-5-methyl-2-[2-(1-methyl-4-thiazol-5-yl-1H-imidazol-2-yl)-ethyl]-[1,2,4]triazolo[1,5-a]pyridine]",9.2 nM
17,"Cc1ccc(-c2cn(C)c(/C=C/c3nc4c(F)cccn4n3)n2)o1 [8-Fluoro-2-{(E)-2-[1-methyl-4-(5-methyl-furan-2-yl)-1H-imidazol-2-yl]-vinyl}-[1,2,4]triazolo[1,5-a]pyridine]",520 nM
18,"COc1ccc(C)n2nc(CCc3nc(-c4ccc(C)o4)cn3C)nc12 [8-Methoxy-5-methyl-2-{2-[1-methyl-4-(5-methyl-furan-2-yl)-1H-imidazol-2-yl]-ethyl}-[1,2,4]triazolo[1,5-a]pyridine]",20 nM
19,"Cc1cc(C)n2cc(/C=C/c3nc(-c4cccs4)cn3COCC[Si](C)(C)C)nc2n1 [5,7-Dimethyl-2-{(E)-2-[4-thiophen-2-yl-1-(2-trimethylsilanyl-ethoxymethyl)-1H-imidazol-2-yl]-vinyl}-imidazo[1,2-a]pyrimidine]",81 nM
20,"Cc1ncc(C)n2nc(CCc3nc(-c4cccnc4)cn3C)nc12 [5,8-Dimethyl-2-[2-(1-methyl-4-pyridin-3-yl-1H-imidazol-2-yl)-ethyl]-[1,2,4]triazolo[1,5-a]pyrazine]",8.9 nM
21,"Cc1cccc2nc(CCc3nc(-c4cccs4)cn3C[C@@H](O)CNCCO)nn12 [(S)-1-(2-Hydroxy-ethylamino)-3-{2-[2-(5-methyl-[1,2,4]triazolo[1,5-a]pyridin-2-yl)-ethyl]-4-thiophen-2-yl-imidazol-1-yl}-propan-2-ol]",30 nM
22,"COc1cccn2nc(CCc3nc(-c4cncs4)cn3C)nc12 [8-Methoxy-2-[2-(1-methyl-4-thiazol-5-yl-1H-imidazol-2-yl)-ethyl]-[1,2,4]triazolo[1,5-a]pyridine]",36 nM

# The remaining molecules from weak to strong by IC50, led by results:
row,IC50,SMILES
1,8.8 nM,"Cc1cccc2nc(CCc3nc(-c4cccs4)cn3C[C@@H](O)CN(C)CC#N)nn12 [[((S)-2-Hydroxy-3-{2-[2-(5-methyl-[1,2,4]triazolo[1,5-a]pyridin-2-yl)-ethyl]-4-thiophen-2-yl-imidazol-1-yl}-propyl)-methyl-amino]-acetonitrile]"
2,8.8 nM,"Cc1cc(C)n2cc(CCc3nc(-c4cccs4)cn3[C@@H](C)CO)nc2n1 [(S)-2-{2-[2-(5,7-Dimethyl-imidazo[1,2-a]pyrimidin-2-yl)-ethyl]-4-thiophen-2-yl-imidazol-1-yl}-propan-1-ol]"
3,8.8 nM,"Cc1cc(C)n2cc(/C=C/c3nc(-c4cccs4)cn3C)nc2n1 [5,7-Dimethyl-2-[(E)-2-(1-methyl-4-thiophen-2-yl-1H-imidazol-2-yl)-vinyl]-imidazo[1,2-a]pyrimidine]"
4,7.9 nM,"COCC(O)Cn1cc(-c2cccs2)nc1CCc1cn2c(C)cc(C)nc2n1 (stereo not drawn) [1-{2-[2-(5,7-Dimethyl-imidazo[1,2-a]pyrimidin-2-yl)-ethyl]-4-thiophen-2-yl-imidazol-1-yl}-3-methoxy-propan-2-ol]"
5,6.9 nM,"Cc1ncc(C)n2nc(CCc3nc(-c4cncs4)cn3C)nc12 [5,8-Dimethyl-2-[2-(1-methyl-4-thiazol-5-yl-1H-imidazol-2-yl)-ethyl]-[1,2,4]triazolo[1,5-a]pyrazine]"
6,6.8 nM,"Cc1cc(C)n2cc(CCc3nc(-c4cccs4)cn3CCC(C)C)nc2n1 [5,7-Dimethyl-2-{2-[1-(3-methyl-butyl)-4-thiophen-2-yl-1H-imidazol-2-yl]-ethyl}-imidazo[1,2-a]pyrimidine]"
7,6.8 nM,"Cc1ccc(-c2cn(C)c(CCc3nc4c(C)ncc(C)n4n3)n2)o1 [5,8-Dimethyl-2-{2-[1-methyl-4-(5-methyl-furan-2-yl)-1H-imidazol-2-yl]-ethyl}-[1,2,4]triazolo[1,5-a]pyrazine]"
8,6.4 nM,"Cc1cccc2nc(CCc3nc(-c4cccs4)cn3[C@@H](C)CO)nn12 [(S)-2-{2-[2-(5-Methyl-[1,2,4]triazolo[1,5-a]pyridin-2-yl)-ethyl]-4-thiophen-2-yl-imidazol-1-yl}-propan-1-ol]"
9,4.2 nM,"Cc1cc(C)n2nc(CCc3nc(-c4cccs4)cn3C)nc2n1 [5,7-Dimethyl-2-[2-(1-methyl-4-thiophen-2-yl-1H-imidazol-2-yl)-ethyl]-[1,2,4]triazolo[1,5-a]pyrimidine]"
10,4.1 nM,"C#CCn1cc(-c2cccs2)nc1CCc1nc2c(OC)ccc(C)n2n1 [8-Methoxy-5-methyl-2-[2-(1-prop-2-ynyl-4-thiophen-2-yl-1H-imidazol-2-yl)-ethyl]-[1,2,4]triazolo[1,5-a]pyridine]"
11,1.7 nM,"COc1ccc(C)n2nc(CCc3nc(-c4ccsc4)cn3C)nc12 [8-Methoxy-5-methyl-2-[2-(1-methyl-4-thiophen-3-yl-1H-imidazol-2-yl)-ethyl]-[1,2,4]triazolo[1,5-a]pyridine]"

# Source: patent publication US9096589B2, “Heteroaromatic phenylimidazole derivatives as PDE10A enzyme inhibitors” (H. Lundbeck A/S, priority 2009, dated 2015)
